Experimental data published in PubChem BioAssay AID328 (DTP/NCI, 2004).
“And” between values parts separate entries of the source, which are not always exact repeats. Equal entries are not always repeated. Toxic doses and inconclusive results are not listed. Rule for the calls: active = survival T/C of 150% or more; inactive = T/C below 125% in these data.

Test system: BDF1 mice, P388 leukemia ip, median survival T/C
Assay: NCI In Vivo Anticancer Drug Screen. Data for tumor model P388 Leukemia (intraperitoneal) in B6D2F1 (BDF1) mice
Conditions: endpoint: median survival time, higher = longer survival
In short: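 T/C = treated-group survival ÷ vehicle-control survival; tumour transplanted into mice before dosing.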

[1] = dose: 200.0 mg/kg/injection, schedule: Q01DX009 (ip), vehicle: saline with Tween-80
[2] = dose: 50.0 mg/kg/injection, schedule: Q01DX009 (ip), vehicle: saline with Tween-80
[3] = dose: 100.0 mg/kg/injection, schedule: Q01DX009 (ip), vehicle: saline with Tween-80
[4] = dose: 100.0 mg/kg/injection, schedule: Q04DX003 (ip), vehicle: saline with Tween-80
[5] = dose: 200.0 mg/kg/injection, schedule: Q04DX003 (ip), vehicle: saline with Tween-80
[6] = dose: 400.0 mg/kg/injection, schedule: Q04DX003 (ip), vehicle: saline with Tween-80
[7] = dose: 400.0 mg/kg/injection, schedule: Q04DX003 (ip), vehicle: saline
[8] = dose: 12.5 mg/kg/injection, schedule: Q01DX009 (ip), vehicle: Klucel (hydroxypropylcellulose) (HPC)
[9] = dose: 25.0 mg/kg/injection, schedule: Q01DX009 (ip), vehicle: Klucel (hydroxypropylcellulose) (HPC)
[10] = dose: 100.0 mg/kg/injection, schedule: Q01DX009 (ip), vehicle: saline
[11] = dose: 100.0 mg/kg/injection, schedule: Q04DX003 (ip), vehicle: saline
[12] = dose: 6.25 mg/kg/injection, schedule: Q01DX009 (ip), vehicle: saline with Tween-80
[13] = dose: 12.5 mg/kg/injection, schedule: Q01DX009 (ip), vehicle: saline with Tween-80
[14] = dose: 25.0 mg/kg/injection, schedule: Q01DX009 (ip), vehicle: saline with Tween-80

Measured: T/C

CN(C)c1nc(N(C)C)nc(N(C)C)n1
inactive: dose: 18.8 mg/kg/injection, schedule: Q01DX010 (ip), vehicle: saline 100 % of control | dose: 20.0 mg/kg/injection, schedule: Q01DX009 (ip), vehicle: Klucel (hydroxypropylcellulose) (HPC) 95 % of control | dose: 20.0 mg/kg/injection, schedule: Q01DX009 (ip), vehicle: saline with Tween-80 104 % of control | dose: 25.0 mg/kg/injection, schedule: Q01DX001 (ip), vehicle: Klucel (hydroxypropylcellulose) (HPC) 100 % of control | dose: 25.0 mg/kg/injection, schedule: Q04DX002 (ip), vehicle: Klucel (hydroxypropylcellulose) (HPC) 101 % of control and 107 % of control | dose: 25.0 mg/kg/injection, schedule: Q04DX003 (ip), vehicle: Klucel (hydroxypropylcellulose) (HPC) 96 % of control and 100 % of control | dose: 37.5 mg/kg/injection, schedule: Q01DX010 (ip), vehicle: saline 100 % of control and 110 % of control | dose: 40.0 mg/kg/injection, schedule: Q01DX009 (ip), vehicle: Klucel (hydroxypropylcellulose) (HPC) 100 % of control | dose: 40.0 mg/kg/injection, schedule: Q01DX009 (ip), vehicle: saline with Tween-80 113 % of control | dose: 59.0 mg/kg/injection, schedule: Q01DX009 (ip), vehicle: saline with Tween-80 107 % of control | dose: 75.0 mg/kg/injection, schedule: Q01DX010 (ip), vehicle: saline 100 % of control and 115 % of control | dose: 80.0 mg/kg/injection, schedule: Q01DX009 (ip), vehicle: Klucel (hydroxypropylcellulose) (HPC) 90 % of control | dose: 80.0 mg/kg/injection, schedule: Q01DX009 (ip), vehicle: saline with Tween-80 99 % of control | dose: 89.0 mg/kg/injection, schedule: Q01DX009 (ip), vehicle: saline with Tween-80 107 % of control | dose: 133.0 mg/kg/injection, schedule: Q01DX009 (ip), vehicle: saline with Tween-80 115 % of control | dose: 150.0 mg/kg/injection, schedule: Q01DX010 (ip), vehicle: saline 100 % of control and 104 % of control | dose: 160.0 mg/kg/injection, schedule: Q01DX009 (ip), vehicle: Klucel (hydroxypropylcellulose) (HPC) 104 % of control | [1] 107 % of control

CC(=O)c1ccccc1C
inactive: [2] 100 % of control | dose: 50.0 mg/kg/injection, schedule: Q04DX003 (ip), vehicle: saline with Tween-80 100 % of control | [3] 109 % of control | [4] 100 % of control | [1] 95 % of control | [5] 100 % of control

CNC(=O)NC1C(O)C(CO)OC(OC)C1O (stereo not given)
inactive: dose: 100.0 mg/kg/injection, schedule: Q01DX001 (ip), vehicle: saline 118 % of control | dose: 200.0 mg/kg/injection, schedule: Q01DX001 (ip), vehicle: saline 100 % of control | dose: 400.0 mg/kg/injection, schedule: Q01DX001 (ip), vehicle: saline 104 % of control

C=CC(CN1CC1)OC(C)=O (stereo not given)
active: dose: 4.0 mg/kg/injection, schedule: Q01DX010 (ip), vehicle: saline 163 % of control | dose: 8.0 mg/kg/injection, schedule: Q01DX010 (ip), vehicle: saline 181 % of control | dose: 16.0 mg/kg/injection, schedule: Q01DX010 (ip), vehicle: saline 166 % of control
inactive: dose: 2.0 mg/kg/injection, schedule: Q01DX010 (ip), vehicle: saline 112 % of control

CCCCCC#CC1OC12CCCCC2 (stereo not given)
inactive: [2] 124 % of control | [3] 119 % of control | [1] 102 % of control

c1ccc2c(c1)ccc1[nH]c3ccccc3c12
inactive: [4] 116 % of control | [5] 112 % of control | [6] 105 % of control

CS(=O)(=O)OCC(=O)NCCNC(=O)COS(C)(=O)=O
active: [5] 152 % of control | dose: 264.0 mg/kg/injection, schedule: Q04DX003 (ip), vehicle: saline with Tween-80 160 % of control | dose: 264.0 mg/kg/injection, schedule: Q04DX003 (ip), vehicle: saline 165 % of control | [6] 169 % of control and 180 % of control | [7] 152 % of control | dose: 600.0 mg/kg/injection, schedule: Q04DX003 (ip), vehicle: saline 182 % of control

c1ccc([B-]2([C+]3CCCCC3)N3CCCCC3C3CCCCN32)cc1 (stereo not given)
inactive: [8] 119 % of control | [9] 119 % of control

CCc1c(C(OC)OC)[nH]c(=S)[nH]c1=O
inactive: [4] 91 % of control | [5] 91 % of control | [6] 87 % of control

[O-][n+]1onc2ccc(Cl)cc21
inactive: [8] 100 % of control | [9] 100 % of control | dose: 37.5 mg/kg/injection, schedule: Q04DX003 (ip), vehicle: Klucel (hydroxypropylcellulose) (HPC) 95 % of control | dose: 50.0 mg/kg/injection, schedule: Q01DX009 (ip), vehicle: Klucel (hydroxypropylcellulose) (HPC) 95 % of control | dose: 75.0 mg/kg/injection, schedule: Q04DX003 (ip), vehicle: Klucel (hydroxypropylcellulose) (HPC) 117 % of control | dose: 150.0 mg/kg/injection, schedule: Q04DX003 (ip), vehicle: Klucel (hydroxypropylcellulose) (HPC) 86 % of control

NCC(=O)O
inactive: [10] 95 % of control | [11] 100 % of control | dose: 200.0 mg/kg/injection, schedule: Q01DX009 (ip), vehicle: saline 104 % of control | dose: 200.0 mg/kg/injection, schedule: Q04DX003 (ip), vehicle: saline 95 % of control | dose: 400.0 mg/kg/injection, schedule: Q01DX009 (ip), vehicle: saline 95 % of control | [7] 95 % of control

CCCCC(CC)C1NCCO1 (stereo not given)
inactive: [2] 103 % of control | [4] 110 % of control | [1] 92 % of control | [5] 115 % of control | [6] 115 % of control

OCCN1CCN(CC/C=C2/c3ccccc3Sc3ccc(Cl)cc32)CC1
active: dose: 33.0 mg/kg/injection, schedule: Q04DX003 (ip), vehicle: saline 150 % of control
inactive: dose: 5.56 mg/kg/injection, schedule: Q01DX009 (ip), vehicle: saline 108 % of control | dose: 8.33 mg/kg/injection, schedule: Q01DX009 (ip), vehicle: saline 108 % of control | dose: 12.5 mg/kg/injection, schedule: Q01DX009 (ip), vehicle: saline 120 % of control | dose: 25.0 mg/kg/injection, schedule: Q01DX009 (ip), vehicle: saline 113 % of control

COc1ccc(C[C@H](N)C(=O)NC2C(CO)OC(n3cnc4c(N(C)C)ncnc43)C2O)cc1 (stereo not given in full)
inactive: dose: 25.0 mg/kg/injection, schedule: Q04DX003 (ip), vehicle: saline 98 % of control | dose: 50.0 mg/kg/injection, schedule: Q04DX003 (ip), vehicle: saline 109 % of control | [10] 100 % of control | [11] 105 % of control

CN1c2ccccc2C(=O)NC1c1ccc([N+](=O)[O-])s1 (stereo not given)
inactive: [2] 95 % of control | [3] 100 % of control | [1] 91 % of control

CN(C)c1ccc(/C=C/c2ccnc3ccc(I)cc23)cc1
inactive: [12] 96 % of control | [13] 119 % of control | [2] 116 % of control

OCC1OC(Nc2ccccc2/C=N\O)C(O)C1O (stereo not given)
inactive: [3] 111 % of control | [1] 94 % of control

COc1cc2c(cc1OC)C1C(=CCC3c4cc(OC)c(OC)cc4CC[N+]31C)C=C2 (stereo not given)
inactive: [12] 95 % of control | [13] 104 % of control | [14] 116 % of control

Cc1nc2ccccc2nc1CBr
inactive: dose: 2.66 mg/kg/injection, schedule: Q01DX009 (ip), vehicle: saline with Tween-80 109 % of control | dose: 3.12 mg/kg/injection, schedule: Q01DX009 (ip), vehicle: Klucel (hydroxypropylcellulose) (HPC) 111 % of control | dose: 6.0 mg/kg/injection, schedule: Q01DX009 (ip), vehicle: saline with Tween-80 122 % of control | dose: 6.25 mg/kg/injection, schedule: Q01DX009 (ip), vehicle: Klucel (hydroxypropylcellulose) (HPC) 122 % of control | dose: 6.25 mg/kg/injection, schedule: Q04DX003 (ip), vehicle: saline with Tween-80 109 % of control | dose: 6.3 mg/kg/injection, schedule: Q01DX009 (ip), vehicle: Klucel (hydroxypropylcellulose) (HPC) 105 % of control | [8] 105 % of control | dose: 12.5 mg/kg/injection, schedule: Q04DX003 (ip), vehicle: saline with Tween-80 109 % of control | [14] 122 % of control | dose: 25.0 mg/kg/injection, schedule: Q04DX003 (ip), vehicle: saline with Tween-80 113 % of control
